In patent publication US11730719B2, “Pharmaceutical composition” (KOWA COMPANY, LTD., priority 2017, dated 2023):

Assays:
[1] = Hygroscopic property evaluation of pemafibrate crystal (Karl Fischer moisture content); type: physicochemical
Protocol: A pemafibrate crystal was produced by recrystallizing pemafibrate from an ethyl acetate/heptane mixture in accordance with the method for producing a pemafibrate crystal as described in Non-Patent Document 1.
250 mg of the pemafibrate crystal was placed in a dish, and stored in an uncapped state (open state) in a dark place at 25° C. and 83% relative humidity (RH) for 3 months. The hygroscopic property was evaluated by measuring the moisture contents before and after the storage. The measurement of the moisture content was performed by a coulometric titration method in accordance with The Japanese Pharmacopoeia, 17th Edition, Moisture Content Measurement Method (Karl Fischer Method).

[2] = Examination of stability of pemafibrate (open dish storage, related substances by HPLC); type: physicochemical
Protocol: 250 mg of pemafibrate was placed in a dish, and stored in an uncapped state (open state) in a dark place at 40° C. and 75% relative humidity (RH) for 3 months.
The sum of related substance-derived peak areas was evaluated in terms of a ratio (%) to the pemafibrate-derived peak area using an HPLC apparatus, and the ratio was defined as the “Total amount (%) of related substances”.

Row | SMILES | Moisture content (%) ([1]; After storage at 25° C. and 83% RH for 3 months, open state in dish, dark place) | Moisture content (%) ([1]; Before storage, 250 mg in dish) | Hygroscopic property ([1]; storage at 83% RH for 3 months) | Total amount (%) of related substances ([2]; After storage at 40° C. and 75% RH for 3 months, open state in dish, dark place) [%] | Total amount (%) of related substances ([2]; Before storage, 250 mg in dish) [%] | Stability against moisture content ([2]; storage at 75% RH for 3 months)
1 | CC[C@@H](Oc1cccc(CN(CCCOc2ccc(OC)cc2)c2nc3ccccc3o2)c1)C(=O)O [Pemafibrate crystal, (2R)-2-[3-([1,3-Benzoxazol-2-yl[3-(4-methoxyphenoxy)propyl]amino]methyl)phenoxy]butanoic acid] | <0.1 | <0.1 | not hygroscopic |  |  | 
2 | CC[C@@H](Oc1cccc(CN(CCCOc2ccc(OC)cc2)c2nc3ccccc3o2)c1)C(=O)O [Pemafibrate, (2R)-2-[3-([1,3-Benzoxazol-2-yl[3-(4-methoxyphenoxy)propyl]amino]methyl)phenoxy]butanoic acid] |  |  |  | <0.05 | <0.05 | stable
